Molecules are shown by their SMILES. In brackets after ≈: the same amount, converted by molar mass.

The test deals with SA 9218. Nature of the test: MIC by standard agar dilution method. The note with it: Mueller Hinton agar, 10^4 to 10^5 cells per spot, incubated overnight at 35° C., lowest concentration that inhibits visible growth. Type of test: cell-based. Put shortly: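 MIC read after overnight 35 °C incubation as lowest drug level preventing visible growth. Inoculum of roughly 10^4–10^5 cells per spot (0.5 McFarland, 1:20 in TSB) applied to Mueller Hinton agar containing serial 2-fold compound dilutions.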

The MIC is the smallest concentration in the dilution series that meets the test's criterion for growth inhibition. A higher MIC goes with a less susceptible organism. In turn, `CCCN(CCC)S(=O)(=O)c1ccc(C(=O)Nc2ccc(Cl)cc2C(=O)O)cc1N.Cl` [PNU-283603A] had an MIC of 16 µg/mL.
The compound `O=C(Nc1ccc(Cl)cc1C(=O)O)c1ccc(SCc2ccccc2)c([N+](=O)[O-])c1` [PNU-283604] registered an MIC of 4 µg/mL (≈ 9.03 µM).
For `O=C(Nc1ccc(Br)cc1C(=O)O)c1cccc(S(=O)(=O)N2CCc3cc(Cl)ccc32)c1` [PNU-288969], the MIC came out at 0.25 µg/mL (≈ 0.467 µM). This MIC is about 16-fold lower than that of the compound before.
Compound `COc1ccc(S(=O)(=O)N(C)c2ccc(Cl)cc2)cc1C(=O)Nc1ccc(Br)cc1C(=O)O` [PNU-289815] had a minimum inhibitory concentration (MIC) of 8 µg/mL (≈ 14.4 µM).
Same read-out and setting: as for `Cc1ccc(S(=O)(=O)N(C)c2ccc(Cl)cc2)cc1C(=O)Nc1ccc(Br)cc1C(=O)O` [PNU-290821], the figure is 64 µg/mL (≈ 119 µM); as for `O=C(Nc1ccc(Br)cc1C(=O)O)c1ccc(NC(=O)N2CCc3ccccc32)cc1` [PNU-290877, 5-Bromo-2-({4-[(2,3-dihydro-1H-indol-1-ylcarbonyl)amino]benzoyl}amino)benzoic acid], over 128 µg/mL; as for `Nc1cc(C(=O)Nc2ccc(Cl)cc2C(=O)O)ccc1S(=O)(=O)N1CCc2ccccc21` [PNU-290881A], 4 µg/mL (≈ 8.48 µM).
In turn, `O=C(Nc1ccc(Cl)cc1C(=O)O)c1ccc(SCc2ccccc2)c(Br)c1` [PNU-290882] came in with an MIC of 1 µg/mL (≈ 2.1 µM).
`O=C(Nc1ccc(Br)cc1C(=O)O)c1ccc(S(=O)(=O)n2ccc3cc(Cl)ccc32)cc1` [PNU-290905] yielded an MIC of 1 µg/mL (≈ 1.87 µM).
Take `O=C(Nc1ccc(Br)cc1C(=O)O)c1ccc(S(=O)(=O)n2ccc3ccc(Cl)cc32)cc1` [PNU-290906]: the minimal inhibitory concentration (MIC) was found to be 1 µg/mL (≈ 1.87 µM).
In turn, `O=C(Nc1ccc(Br)cc1C(=O)O)c1ccc(S(=O)(=O)n2ccc3cc(F)c(Cl)cc32)cc1` [PNU-291010] displayed a minimal inhibitory concentration (MIC) of 1 µg/mL (≈ 1.81 µM).
On to `O=C(Nc1ccc(Br)cc1C(=O)O)c1ccc(S(=O)(=O)n2ccc3ccc(F)cc32)cc1` [PNU-291011], for which the lowest concentration to inhibit growth (MIC) was 0.25 µg/mL (≈ 0.483 µM).
The compound `CN(c1ccc(Cl)cc1)S(=O)(=O)c1ccc(Br)c(C(=O)Nc2ccc(Br)cc2C(=O)O)c1` [PNU-291061] registered an MIC of 16 µg/mL (≈ 26.5 µM).
Still for that read-out and setting: as for `O=C(Nc1ccc(Br)cc1C(=O)O)c1ccc(S(=O)(=O)n2ccc3cc(F)ccc32)cc1` [PNU-291129], the figure is 0.5 µg/mL (≈ 0.966 µM); as for `O=C(Nc1ccc(Br)cc1C(=O)O)c1ccc(S(=O)(=O)n2cccc2)cc1` [PNU-291130], 4 µg/mL (≈ 8.9 µM).
As for `COc1ccc(C(=O)Nc2ccc(Cl)cc2C(=O)O)cc1[N+](=O)[O-]` [PNU-291408], the “SA 9218 MIC” value turned out to be 32 µg/mL.
The compound `CCCN(CCC)S(=O)(=O)c1ccc(C(=O)Nc2ccc(Cl)cc2C(=O)O)cc1Br` [PNU-291410] yielded an MIC of 4 µg/mL (≈ 7.72 µM).
The same measure, in the same setting: to `COc1ccc2c(ccn2S(=O)(=O)c2ccc(C(=O)Nc3ccc(Br)cc3C(=O)O)cc2)c1` [PNU-291517] belongs 2 µg/mL (≈ 3.78 µM).
On the same count and under the same terms, to `COc1ccc(C(=O)Nc2ccc(Br)cc2C(=O)O)cc1S(=O)(=O)N(C)c1ccc(Cl)cc1` [PNU-291570] belongs 8 µg/mL (≈ 14.4 µM); to `Cc1ccc(C(=O)Nc2ccc(Br)cc2C(=O)O)cc1S(=O)(=O)N(C)c1ccc(Cl)cc1` [PNU-291571], 0.5 µg/mL (≈ 0.93 µM).
Consider `CN(c1ccc(Cl)cc1)S(=O)(=O)c1cc(C(=O)Nc2ccc(Br)cc2C(=O)O)ccc1Br` [PNU-291679], for which inhibition of growth (MIC) required 1 µg/mL (≈ 1.66 µM).
In turn, `O=C(Nc1ccc(Br)cc1C(=O)O)c1ccc(S(=O)(=O)Nc2ccccc2O)cc1` [PNU-291997] returned an MIC of 1 µg/mL (≈ 2.04 µM).
For the compound `COc1ccc(C(=O)Nc2ccc(Cl)cc2C(=O)O)cc1[N+](=O)[O-]` [PNU-292070], the “SA 9218 MIC” value was 2 µg/mL.
On to `CN(c1ccc(Cl)cc1)S(=O)(=O)c1cccc(C(=O)Nc2ccc([N+](=O)[O-])cc2C(=O)O)c1` [PNU-292379], for which inhibition of growth (MIC) required 0.5 µg/mL (≈ 1.02 µM).
`O=C(Nc1ccc(Br)cc1C(=O)O)c1ccc(C(=O)N2CCc3ccccc32)cc1` [PNU-292577] showed an MIC of 128 µg/mL (≈ 275 µM).
On the same count and under the same terms, as for `CN(c1ccc(Cl)cc1)S(=O)(=O)c1ccc(C(=O)Nc2ccc([N+](=O)[O-])cc2C(=O)O)cc1` [PNU-293032], the figure is 16 µg/mL (≈ 32.7 µM); as for `O=C(Nc1ccc(Br)cc1C(=O)O)c1cccc(SCc2ccccc2)c1` [PNU-293049], 4 µg/mL (≈ 9.04 µM).
Consider `CN(c1ccc(Cl)cc1)S(=O)(=O)c1cc(C(=O)Nc2ccc(Br)cc2C(=O)O)ccc1N1CCOCC1` [PNU-293795], for which 32 µg/mL (≈ 52.6 µM) was the least that counted as inhibitory (MIC).
The compound `N#Cc1ccc(C(=O)Nc2ccc(Br)cc2C(=O)O)cc1S(=O)(=O)N1CCc2ccccc21` [PNU-293905] yielded an MIC of 8 µg/mL (≈ 15.2 µM).
Regarding `O=C(Nc1ccc(Cl)cc1C(=O)O)c1cccc(C(=O)c2ccccc2)c1` [drawing 1011], it took 4 µg/mL (≈ 10.5 µM) to inhibit growth (MIC).
In the case of `O=C(Nc1ccc(Cl)cc1C(=O)O)c1ccc(C(=O)C2CCCC2)cc1` [drawing 1027], the “SA 9218 MIC” value stood at 8 µg/mL.
`O=C(Nc1ccc(Br)cc1C(=O)O)c1cccc(C(=NO)c2ccccc2)c1` [drawing 1035]: the MIC stood at 0.5 µg/mL (≈ 1.14 µM).
In the case of `O=C(Nc1ccc(Br)cc1C(=O)O)c1cccc(OCc2ccccc2)c1` [drawing 1037], the lowest concentration to inhibit growth (MIC) was 4 µg/mL (≈ 9.38 µM).
As for `CCCC(Oc1ccc(C(=O)Nc2ccc(Br)cc2C(=O)O)cc1)C(=O)OCC` (centres unmarked) [drawing 1052], the “SA 9218 MIC” value was found to be 64 µg/mL.
`O=C(Nc1ccc(Cl)cc1C(=O)O)c1cccc(C(=NO)c2ccco2)c1` [drawing 1086]: the “SA 9218 MIC” value stood at 2 µg/mL.
With `CCCC(Oc1ccc(C(=O)Nc2ccc(Br)cc2C(=O)O)cc1)C(=O)OCC` (centres unmarked) [drawing 1091], the lowest concentration to inhibit growth (MIC) was 64 µg/mL (≈ 138 µM).
As for `C=CCON=C(c1ccc(C(=O)Nc2ccc(Cl)cc2C(=O)O)cc1)c1ccco1` [drawing 1095], the MIC stood at 32 µg/mL (≈ 75.3 µM). This MIC lies about 2-fold lower than the previous one.
In the case of `O=C(Nc1ccc(Cl)cc1C(=O)O)c1ccc(C(=O)C2CCCC2)cc1` [drawing 1111], the minimum inhibitory concentration (MIC) amounted to 4 µg/mL (≈ 10.8 µM).
As to `O=C(Nc1ccc(Cl)cc1C(=O)O)c1cccc(C(=NO)c2ccco2)c1` [drawing 1121], the “SA 9218 MIC” value was found to be 8 µg/mL.
As to `C=CCON=C(c1ccc(C(=O)Nc2ccc(Cl)cc2C(=O)O)cc1)c1ccco1` [drawing 1123], the “SA 9218 MIC” value turned out to be 64 µg/mL.
Still for that read-out and setting: as for `Cc1ccc(C(=O)Nc2ccc(Br)cc2C(=O)O)cc1S(=O)(=O)N(C)c1ccc(Cl)cc1` [drawing 1134], the figure is 1 µg/mL.

These data come from patent US20050113450A1, “Antibacterial agents” (priority 2002, published 2005).
